Experimental findings from patent US11034650B2, “Compounds useful for treating a Mannheimia haemolytica or Histophilus somni infection” (Intervet Inc., priority 2016, dated 2021) are described below.

Common to all, as to type: cell-based
For experiment [1], the system named is Mannheimia haemolytica MH 6357 (M7/2, reference strain, cattle infection strain). As to the kind of experiment: MIC, broth-microdilution (CLSI VET01-A4), strain MH 6357. The conditions noted are these: Mannheimia haemolytica strain MH 6357, broth-microdilution; unit assumed. In a few lines:
(§1)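 MIC is the lowest compound concentration showing no visible growth by eye, read from doubling-dilution microdilution trays. Method followed CLSI VET01-A4, with interpretation under CLSI VET01-S3.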
In general terms: Broth dilution looks for growth in wells or tubes with falling amounts of substance.

The test system of experiment [2] is Mannheimia haemolytica MH 6374 (ATCC 33396, reference strain). As to the kind of experiment: MIC, broth-microdilution (CLSI VET01-A4), strain MH 6374. The conditions noted are these: Mannheimia haemolytica strain MH 6374, broth-microdilution; unit assumed. In a few lines:
as §1

Experiment [3] concerns Mannheimia haemolytica MH 10720 (154, BRD field isolate). The experiment can be described thus: MIC, broth-microdilution (CLSI VET01-A4), strain MH 10720. The conditions noted are these: Mannheimia haemolytica strain MH 10720, broth-microdilution; unit assumed. In a few lines: as §1
For experiment [4], the system named is Mannheimia haemolytica MH 12587 (1071, BRD field isolate, macrolide-resistance: erm+, E+). As to the kind of experiment: MIC, broth-microdilution (CLSI VET01-A4), strain MH 12587. The conditions noted are these: Mannheimia haemolytica strain MH 12587, broth-microdilution; unit assumed. The procedure, abridged:
as §1

Experiment [5] deals with Mannheimia haemolytica MH 13065 (XB0446-6003.9, BRD field isolate). The experiment can be described thus: MIC, broth-microdilution (CLSI VET01-A4), strain MH 13065. The conditions noted are these: Mannheimia haemolytica strain MH 13065, broth-microdilution; unit assumed. The procedure, abridged: as §1
Experiment [6] has as its system Mannheimia haemolytica MH 13093 (XB0472-6014.1, BRD field isolate). The experiment can be described thus: MIC, broth-microdilution (CLSI VET01-A4), strain MH 13093. The conditions noted are these: Mannheimia haemolytica strain MH 13093, broth-microdilution; unit assumed. The procedure, abridged:
as §1

In experiment [7] the test system is Pasteurella multocida PM 6267 (P 2225 (L386), reference strain, mouse infection strain). The experiment can be described thus: MIC, broth-microdilution (CLSI VET01-A4), strain PM 6267. The conditions noted are these: Pasteurella multocida strain PM 6267, broth-microdilution; unit assumed. The procedure, abridged: as §1
Experiment [8] concerns Pasteurella multocida PM 6391 (ATCC 43137, reference strain). As to the kind of experiment: MIC, broth-microdilution (CLSI VET01-A4), strain PM 6391. The conditions noted are these: Pasteurella multocida strain PM 6391, broth-microdilution; unit assumed. In a few lines:
as §1

For experiment [9], the system named is Pasteurella multocida PM 10775 (080130003051, BRD field isolate). The experiment can be described thus: MIC, broth-microdilution (CLSI VET01-A4), strain PM 10775. The conditions noted are these: Pasteurella multocida strain PM 10775, broth-microdilution; unit assumed. The procedure, abridged: as §1
Experiment [10] deals with Pasteurella multocida PM 12080 (IV102277-0093, BRD field isolate). As to the kind of experiment: MIC, broth-microdilution (CLSI VET01-A4), strain PM 12080. The conditions noted are these: Pasteurella multocida strain PM 12080, broth-microdilution; unit assumed. The procedure, abridged:
as §1

In brackets after ≈: the same amount, converted by molar mass.

Compound `CC(C)[C@H](NC(=O)c1ccc(C#Cc2ccc(CN3CCN(C)CC3)cc2)cc1)C(=O)NO` [Compound 211] returned an MIC MH 6357 in experiment [1] of 3.1 µg/mL (≈ 6.91 µM). The same compound displayed an MIC MH 6374 in experiment [2] of 12.5 µg/mL (≈ 27.9 µM). The MIC MH 10720 in [3] was 1.6 µg/mL (≈ 3.57 µM). In [4], this compound displayed an MIC MH 12587 of 12.5 µg/mL (≈ 27.9 µM). Besides, in experiment [5], the MIC MH 13065 is 6.3 µg/mL (≈ 14 µM). For the same compound, the MIC MH 13093 in [6] was 6.3 µg/mL (≈ 14 µM). This compound gave an MIC PM 6267 in experiment [7] of at most 0.1 µg/mL. In addition, the MIC PM 6391 in experiment [8] came to 0.2 µg/mL (≈ 0.446 µM). This compound showed an MIC PM 10775 in experiment [9] of at most 0.1 µg/mL. For the same compound, in experiment [10], the MIC PM 12080 was at most 0.1 µg/mL.
For the compound `CC(C)[C@H](NC(=O)c1ccc(C#Cc2ccc(CN3CCCC3)cc2)cc1)C(=O)NO` [Compound 212], the MIC MH 6357 in experiment [1] was 3.1 µg/mL (≈ 7.39 µM). In experiment [2], this compound gave an MIC MH 6374 of 6.3 µg/mL (≈ 15 µM). Also, the MIC MH 10720 in experiment [3] is 0.8 µg/mL (≈ 1.91 µM). In [4], the MIC MH 12587 was determined as 12.5 µg/mL (≈ 29.8 µM). Further, in [5], the MIC MH 13065 turned out to be 3.1 µg/mL (≈ 7.39 µM). The compound further came in with an MIC MH 13093 in experiment [6] of 12.5 µg/mL (≈ 29.8 µM). In addition, the MIC PM 6267 in experiment [7] stood at 0.2 µg/mL (≈ 0.477 µM). The compound also returned an MIC PM 6391 in experiment [8] of 0.4 µg/mL (≈ 0.953 µM). Besides, the MIC PM 10775 in experiment [9] is at most 0.1 µg/mL. Also, in [10], the MIC PM 12080 is 0.2 µg/mL (≈ 0.477 µM).
For the compound `O=C(N[C@@H](CO)C(=O)NO)c1ccc(C#Cc2ccc(CNCc3nccs3)cc2)cc1` [Compound 213], in experiment [1], the MIC MH 6357 was 1.6 µg/mL (≈ 3.55 µM). Also, the MIC MH 6374 in experiment [2] stood at 1.6 µg/mL (≈ 3.55 µM). Further, the MIC MH 10720 in experiment [3] was 0.8 µg/mL (≈ 1.78 µM). Also, the MIC MH 12587 in [4] is 3.1 µg/mL (≈ 6.88 µM). In experiment [5], this compound had an MIC MH 13065 of 1.6 µg/mL (≈ 3.55 µM). The compound also had an MIC MH 13093 in experiment [6] of 3.1 µg/mL (≈ 6.88 µM). Besides, the MIC PM 6267 in [7] is at most 0.1 µg/mL. For the same compound, in experiment [8], the MIC PM 6391 is 0.4 µg/mL (≈ 0.888 µM). The same compound returned an MIC PM 10775 in [9] of at most 0.1 µg/mL. In [10], this compound showed an MIC PM 12080 of 0.2 µg/mL (≈ 0.444 µM).
As for `O=C(N[C@@H](CO)C(=O)NO)c1ccc(C#Cc2ccc(CNCc3ccnc(Cl)c3)cc2)cc1` [Compound 214], the MIC MH 6357 in experiment [1] came out at 1.6 µg/mL (≈ 3.34 µM). Also, the MIC MH 6374 in [2] is 1.6 µg/mL (≈ 3.34 µM). Also, the MIC MH 10720 in experiment [3] was 0.8 µg/mL (≈ 1.67 µM). Further, in experiment [4], the MIC MH 12587 was 6.3 µg/mL (≈ 13.2 µM). Further, the MIC MH 13065 in [5] stood at 3.1 µg/mL (≈ 6.47 µM). In addition, the MIC MH 13093 in experiment [6] was 3.1 µg/mL (≈ 6.47 µM). Further, in experiment [7], the MIC PM 6267 was determined as 0.2 µg/mL (≈ 0.418 µM). This compound returned an MIC PM 6391 in experiment [8] of 0.4 µg/mL (≈ 0.835 µM). In [9], this compound registered an MIC PM 10775 of at most 0.1 µg/mL. In experiment [10], this compound returned an MIC PM 12080 of 0.4 µg/mL (≈ 0.835 µM).
Turning to `O=C(N[C@@H](CO)C(=O)NO)c1ccc(C#Cc2ccc(CN3CCCOCC3)cc2)cc1` [Compound 215], the MIC MH 6357 in [1] was found to be 3.1 µg/mL (≈ 7.09 µM). Also, the MIC MH 6374 in experiment [2] came out at 3.1 µg/mL (≈ 7.09 µM). Further, in experiment [3], the MIC MH 10720 came out at 0.8 µg/mL (≈ 1.83 µM). In addition, the MIC MH 12587 in experiment [4] is 6.3 µg/mL (≈ 14.4 µM). Further, the MIC MH 13065 in [5] turned out to be 3.1 µg/mL (≈ 7.09 µM). The MIC MH 13093 in experiment [6] came out at 6.3 µg/mL (≈ 14.4 µM). For the same compound, the MIC PM 6267 in [7] was at most 0.1 µg/mL. In addition, in experiment [8], the MIC PM 6391 is at most 0.1 µg/mL. In [9], this compound came in with an MIC PM 10775 of at most 0.1 µg/mL. This compound showed an MIC PM 12080 in [10] of at most 0.1 µg/mL.
In [1], `N#CCNCc1ccc(C#Cc2ccc(C(=O)N[C@@H](CO)C(=O)NO)cc2)cc1` [Compound 216] registered an MIC MH 6357 of 1.6 µg/mL (≈ 4.08 µM). The compound further displayed an MIC MH 6374 in experiment [2] of 3.1 µg/mL (≈ 7.9 µM). This compound also gave an MIC MH 10720 in [3] of 0.8 µg/mL (≈ 2.04 µM). Further, in experiment [4], the MIC MH 12587 was 3.1 µg/mL (≈ 7.9 µM). The compound further registered an MIC MH 13065 in experiment [5] of 1.6 µg/mL (≈ 4.08 µM). In experiment [6], this compound registered an MIC MH 13093 of 3.1 µg/mL (≈ 7.9 µM). In addition, the MIC PM 6267 in [7] is at most 0.1 µg/mL. The same compound returned an MIC PM 6391 in experiment [8] of 0.2 µg/mL (≈ 0.51 µM). Besides, the MIC PM 10775 in experiment [9] is at most 0.1 µg/mL. Moreover, the MIC PM 12080 in experiment [10] worked out at 0.2 µg/mL (≈ 0.51 µM).
As to `CC(C)(O)[C@H](NC(=O)c1ccc(C#Cc2ccc(CNC3CC3)cc2)cc1)C(=O)NO` [Compound 219], the MIC MH 6357 in experiment [1] turned out to be 1.6 µg/mL (≈ 3.8 µM). This compound gave an MIC MH 6374 in experiment [2] of 0.4 µg/mL (≈ 0.949 µM). Moreover, the MIC MH 10720 in [3] is at most 0.1 µg/mL. Further, the MIC MH 12587 in experiment [4] was 1.6 µg/mL (≈ 3.8 µM). The MIC MH 13065 in experiment [5] is 0.4 µg/mL (≈ 0.949 µM). The compound further came in with an MIC MH 13093 in experiment [6] of 0.8 µg/mL (≈ 1.9 µM). For the same compound, in [7], the MIC PM 6267 is at most 0.1 µg/mL. In experiment [8], this compound gave an MIC PM 6391 of at most 0.1 µg/mL. Also, the MIC PM 10775 in [9] was at most 0.1 µg/mL. For the same compound, in [10], the MIC PM 12080 is at most 0.1 µg/mL.
Compound `C=CCNCc1ccc(C#Cc2ccc(C(=O)N[C@H](C(=O)NO)C(C)(C)O)cc2)cc1` [Compound 220] came in with an MIC MH 6357 in [1] of 3.1 µg/mL (≈ 7.35 µM). The MIC MH 6374 in [2] amounted to 0.8 µg/mL (≈ 1.9 µM). The MIC MH 10720 in experiment [3] is at most 0.1 µg/mL. This compound displayed an MIC MH 12587 in experiment [4] of 3.1 µg/mL (≈ 7.35 µM). In [5], the MIC MH 13065 was determined as 0.8 µg/mL (≈ 1.9 µM). In [6], this compound had an MIC MH 13093 of 1.6 µg/mL (≈ 3.8 µM). In [7], this compound yielded an MIC PM 6267 of at most 0.1 µg/mL. The MIC PM 6391 in [8] worked out at 0.4 µg/mL (≈ 0.949 µM). In addition, in experiment [9], the MIC PM 10775 was at most 0.1 µg/mL. This compound also came in with an MIC PM 12080 in experiment [10] of 0.4 µg/mL (≈ 0.949 µM).
